The values that follow come from PMC9003574 (ACS Pharmacology & Translational Science, 2022).

For one series, the system named is Vero E6-GFP cells. Description: in vitro. The series is classed as cell-based, African green monkey. The note with it: read-out: Vero E6-GFP CC50; cell viability, 2 μM CP100356.
Series [1] has as its target T1, SARS-CoV-2 nsp13 (Severe acute respiratory syndrome coronavirus 2, UniProt P0DTD1). Description: biochemical. The series is classed as biochemical. The note with it: for ATPase, percentage of control at the highest tested compound concentration: without BSA/TCEP.
Series [2] has as its target T1, SARS-CoV-2 nsp13. To be noted: for impact of DTT on inhibition of unwinding activity: presence or absence of 1 mM DTT.
Series [3] concerns the target T1, SARS-CoV-2 nsp13. Description: biochemical.
The next series concerns SARS-CoV-2. Description: microbe, parasite or virus in culture. The series is classed as cell-based. The note with it: for EC50: Severe acute respiratory syndrome coronavirus 2, Vero, read-out: SARS-CoV-2 EC50.
The nature of the next series: in vitro. The series is classed as cell-based, African green monkey. The note with it: African green monkey, with CP100356, 2 μM.
For series [4], the target named is T1, SARS-CoV-2 nsp13. The note with it: read-out: NTPase activity IC50; cited from earlier work.
[5] abbreviates: ATPase IC50, without BSA/TCEP, no nucleic acid.
[6] abbreviates: unwinding IC50, without BSA/TCEP.
The mark [7] stands for this setting: ATPase BSA-TCEP-polyrA IC50, BSA, TCEP and poly(A) ssRNA.
The mark [8] stands for this setting: unwinding BSA-TCEP IC50, 10 μg/mL BSA and 180 μM TCEP.

Read-outs that look alike come from different tables or passages of the source. A value given as a limit tells only on which side of the number the result lay.

As to `CC(C)C[C@H](NC(=O)OCc1ccccc1)C(=O)N[C@@H](CC1CCNC1=O)C(O)S(=O)(=O)O` (stereo partly shown) [GC376, reference compound], the CC50 in the series with Vero E6-GFP cells was above 100 µM.
With `O=c1cc(-c2ccc(O)cc2)oc2cc(O[C@@H]3O[C@H](CO)[C@@H](O)[C@H](O)[C@H]3O)cc(O)c12` [apigenin-7-O-glucoside], the IC50 against SARS-CoV-2 nsp13 [1] (setting [5]) and against SARS-CoV-2 nsp13 [3] (setting [6]) was above 30 µM in each case. The “ATPase, percentage of control at the highest tested compound concentration” value (“ATPase, percentage of control” for short) on SARS-CoV-2 nsp13 [1] is 99%. In addition, the “unwinding, percentage of control at the highest tested compound concentration” value (from here on “unwinding, percentage of control”) on SARS-CoV-2 nsp13 [2] (without BSA/TCEP) came to 100%.
In the case of `O=c1cc(-c2ccccc2)oc2cc(O)c(O)c(O)c12` [baicalein], the “ATPase, percentage of control” value on SARS-CoV-2 nsp13 [1] is given as 94%. Besides, in the series on SARS-CoV-2, the EC50 is above 100 µM and the “SARS-CoV-2, percentage of control at the highest tested compound concentration” value (shortened to “SARS-CoV-2, percentage of control”) is >100 (100%). Also, in the series “in vitro”, the half-maximal cytotoxic concentration (CC50) at 72 h was above 100 µM and the viability at 72 h came out at 100%.
For `COc1ccc2cc1Oc1ccc(cc1)C[C@H]1c3c(cc4c(c3Oc3cc5c(cc3OC)CCN(C)[C@@H]5C2)OCO4)CCN1C` [cepharanthine], on SARS-CoV-2 nsp13 [4], the IC50 is 400 µM.
With `O=C1c2c(O)cc(O)cc2O[C@H](c2cc(O)c(O)c(O)c2)[C@H]1O` [dihydro-myricetin], the “ATPase, percentage of control” value on SARS-CoV-2 nsp13 [1] was found to be 100%.
As for `COc1ccc(-c2cc(=O)c3c(O)cc(O)cc3o2)cc1O` [diosmetin], the “ATPase, percentage of control” value on SARS-CoV-2 nsp13 [1] was 92%. Further, in the series on SARS-CoV-2, the EC50 is above 100 µM and the “SARS-CoV-2, percentage of control” value was >100 (100%).
Consider `O=C(O)c1cc(O)c(O)c(O)c1` [gallic acid], for which the IC50 on SARS-CoV-2 nsp13 [1] (setting [5]) and against SARS-CoV-2 nsp13 [3] (setting [6]) was above 30 µM in each case. In addition, the “ATPase, percentage of control” value on SARS-CoV-2 nsp13 [1] is 92%. Moreover, the “unwinding, percentage of control” value on SARS-CoV-2 nsp13 [2] (without BSA/TCEP) was found to be 89%.
The molecule `O=c1c(O)c(-c2ccc(O)cc2)oc2cc(O)cc(O)c12` [kaempferol] yielded an IC50 against SARS-CoV-2 nsp13 [1] (setting [7]) above 30 µM. On SARS-CoV-2 nsp13 [1] (setting [5]), the IC50 was above 30 µM. In addition, at SARS-CoV-2 nsp13 [1], the “ATPase, percentage of control” value stood at 83%. For the same molecule, in the series on SARS-CoV-2, the EC50 was above 100 µM and the “SARS-CoV-2, percentage of control” value was >100 (100%). In “in vitro”, this molecule displayed a CC50 at 72 h above 100 µM and a viability at 72 h of 100%. The “impact of DTT on inhibition of unwinding activity” value on SARS-CoV-2 nsp13 [2] was “equally active in the presence and absence of DTT”. Further, on SARS-CoV-2 nsp13 [2] (versus ATP), the “mode of inhibition of unwinding activity” value was “noncompetitively versus ATP”. Further, the “unwinding IC50 range in words” value on SARS-CoV-2 nsp13 [2] (without BSA/TCEP) is “nanomolar range”. This molecule also came in with an IC50 at SARS-CoV-2 nsp13 [3] (setting [8]) of 19 ± 2.1 µM.
Consider `O=c1c(O)c(-c2cc(O)c(O)c(O)c2)oc2cc(O)cc(O)c12` [myricetin], for which the “ATPase, percentage of control” value at SARS-CoV-2 nsp13 [1] turned out to be 87%. Further, in the series on SARS-CoV-2, the EC50 is above 100 µM and the “SARS-CoV-2, percentage of control” value is >100 (100%). In “in vitro”, the CC50 at 72 h was above 100 µM and the viability at 72 h was determined as 100%. The “impact of DTT on inhibition of unwinding activity” value at SARS-CoV-2 nsp13 [2] is “equally active in the presence and absence of DTT”.
For the molecule `COc1cc(O)c2c(=O)c(-c3ccc(O)cc3)coc2c1` [prunetin], the IC50 against SARS-CoV-2 nsp13 [1] (setting [7]) was above 30 µM; at SARS-CoV-2 nsp13 [1] (setting [5]) it was above 30 µM; against SARS-CoV-2 nsp13 [3] (setting [8]), above 100 µM; at SARS-CoV-2 nsp13 [3] (setting [6]) it was 11.5 ± 1.7 µM. In addition, at SARS-CoV-2 nsp13 [1], the “ATPase, percentage of control” value is 97%. In addition, the EC50 with SARS-CoV-2 was above 100 µM. Also, the “SARS-CoV-2, percentage of control” value in the series on SARS-CoV-2 was >100 (100%). This molecule also gave a CC50 at 72 h in the series “in vitro” above 100 µM. The molecule further had a viability at 72 h in “in vitro” of 100%.
On to `O=c1c(O)c(-c2ccc(O)c(O)c2)oc2cc(O)cc(O)c12` [quercetin], for which the half-maximal effective concentration (EC50) in the series with SARS-CoV-2 is above 100 µM. In the series “in vitro”, this molecule returned a CC50 at 72 h above 100 µM and a viability at 72 h of 100%.
For `Oc1ccc(/C=C/c2cc(O)cc(O)c2)cc1` [resveratrol], the IC50 at SARS-CoV-2 nsp13 [1] (setting [5]) and at SARS-CoV-2 nsp13 [3] (setting [6]) was above 30 µM each time. Besides, on SARS-CoV-2 nsp13 [1], the “ATPase, percentage of control” value was 98%. Moreover, on SARS-CoV-2 nsp13 [2] (without BSA/TCEP), the “unwinding, percentage of control” value is 64%.
For the molecule `C[C@@H]1O[C@@H](OC[C@H]2O[C@@H](Oc3c(-c4ccc(O)c(O)c4)oc4cc(O)cc(O)c4c3=O)[C@H](O)[C@@H](O)[C@@H]2O)[C@H](O)[C@H](O)[C@H]1O` [rutin], the “ATPase, percentage of control” value on SARS-CoV-2 nsp13 [1] is on record as 96%. Besides, the “unwinding, percentage of control” value at SARS-CoV-2 nsp13 [2] (without BSA/TCEP) came to 75%.
As to `COc1c(O)cc(O)c2c(=O)cc(-c3ccccc3)oc12` [wogonin], the IC50 at SARS-CoV-2 nsp13 [1] (setting [7]) is above 30 µM; at SARS-CoV-2 nsp13 [1] (setting [5]) it was above 30 µM; on SARS-CoV-2 nsp13 [3] (setting [8]), 74.9 ± 8.3 µM; against SARS-CoV-2 nsp13 [3] (setting [6]) it was 24.9 ± 5.5 µM. Also, on SARS-CoV-2 nsp13 [1], the “ATPase, percentage of control” value was found to be 95%.
Turning to kaempferol-3-O-rutinoside, the “ATPase, percentage of control” value on SARS-CoV-2 nsp13 [1] stood at 95%. For the same molecule, the “unwinding, percentage of control” value at SARS-CoV-2 nsp13 [2] (without BSA/TCEP) was 71%.
